≈ marks a conversion by molar mass, not a printed value.
Experiments:
[1] = Kinetic aqueous solubility of the compound in 4% DMSO/HEPES buffer at pH 8 incubated for 20 hrs by NMR analysis; assay type: physicochemical; conditions: read-out: Kinetic_solubility
[2] = in vitro; conditions: PAMPA, pH 7.4

| solubility kinetic at 20 h [1] [µM] | Papp [2] [×10⁻⁶ cm/s] | SMILES |
| --- | --- | --- |
| 190 (≈ 75.2 µg/mL) |  | C[C@@H]1CCOc2c(c3cc(Nc4ccnc(Cl)c4C#N)ccc3n(C)c2=O)N1 |
|  | < 0.1 | CCNc1cc(=O)[nH]c2ccc(Nc3ccnc(Cl)c3C#N)cc12 |
